# Experimental data: ChEMBL document CHEMBL3259532, “Elucidation of different inhibition mechanism of small chemicals on PtdInsP-binding domains using in silico docking experiments” (Bioorg Med Chem Lett, 2014)
# How the values were obtained:
# [1] = target: T1, Cytohesin-3 (Homo sapiens) (UniProt O43739); assay: Inhibition of C-terminal 6xHis-tagged Grp1 PH domain (unknown origin) expressed in Escherichia coli BL21(DE3) RIL assessed as inhibition of interaction with PtdIns(3,4,5)P3 at 500 uM after 15 mins by SPR analysis relative to control
# T1 sequence (whole entry): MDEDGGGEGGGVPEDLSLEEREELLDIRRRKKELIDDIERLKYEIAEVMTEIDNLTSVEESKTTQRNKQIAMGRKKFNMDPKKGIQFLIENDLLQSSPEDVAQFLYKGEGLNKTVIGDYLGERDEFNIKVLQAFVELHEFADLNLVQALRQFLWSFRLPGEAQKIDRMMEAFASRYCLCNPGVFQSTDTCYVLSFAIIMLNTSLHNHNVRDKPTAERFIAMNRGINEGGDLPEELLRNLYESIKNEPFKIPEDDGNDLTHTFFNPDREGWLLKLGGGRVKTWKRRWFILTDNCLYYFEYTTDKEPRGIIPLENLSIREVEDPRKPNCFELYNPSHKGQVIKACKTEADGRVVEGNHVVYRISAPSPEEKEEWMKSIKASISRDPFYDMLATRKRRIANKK
# Epsin-1 (Homo sapiens) = target: T2, Epsin-1 (Homo sapiens) (UniProt Q9Y6I3); assay: Inhibition of C-terminal 6xHis-tagged epsin-1 ENTH domain (unknown origin) expressed in Escherichia coli BL21(DE3) RIL assessed as inhibition of interaction with PtdIns(4,5)P2 at 100 uM after 15 mins by SPR analysis relative to control
# T2 sequence (whole entry): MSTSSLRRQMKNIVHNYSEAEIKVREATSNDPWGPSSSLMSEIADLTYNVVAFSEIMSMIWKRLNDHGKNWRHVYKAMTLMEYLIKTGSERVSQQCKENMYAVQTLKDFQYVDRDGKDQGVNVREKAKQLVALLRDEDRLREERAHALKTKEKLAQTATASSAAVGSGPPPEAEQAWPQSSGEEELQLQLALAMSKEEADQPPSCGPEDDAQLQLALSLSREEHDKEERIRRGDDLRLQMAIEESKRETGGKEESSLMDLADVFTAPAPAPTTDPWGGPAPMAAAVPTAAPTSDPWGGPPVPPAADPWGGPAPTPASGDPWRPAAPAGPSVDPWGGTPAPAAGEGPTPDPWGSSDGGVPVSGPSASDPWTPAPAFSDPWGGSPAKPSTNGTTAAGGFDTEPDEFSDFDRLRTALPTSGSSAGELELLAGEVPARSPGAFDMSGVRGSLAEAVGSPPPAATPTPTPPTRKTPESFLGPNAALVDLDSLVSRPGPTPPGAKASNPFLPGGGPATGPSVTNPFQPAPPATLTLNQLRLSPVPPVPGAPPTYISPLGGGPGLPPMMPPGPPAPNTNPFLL
# Cytohesin-3 = target: T3, Cytohesin-3 (Homo sapiens, UniProt O43739); assay: Inhibition of recombinant C-terminal 6xHis-tagged Grp1 PH domain (unknown origin) expressed in Escherichia coli BL21(DE3) RIL assessed as inhibition of interaction with PtdIns(3,4,5)P3 after 15 mins by SPR analysis
# T3 sequence (O43739 whole entry): T1 sequence (whole entry)
inhibition [1] [%],inhibition (Epsin-1 (Homo sapiens)) [%],SMILES,IC50 (Cytohesin-3) [µM]
48,8.3,COP(=O)(O)C1=NNC(C)(C(=O)O)C1 (stereo unspecified),
0,13,O=C1[C@@H]2C[C@@H]3CC[C@@]2(O3)[C@@H](P(=O)(O)O)N1Cc1ccccc1,
36,57,CCOP(=O)(O)c1cc(C(=O)O)[nH]n1,

SMILES,inhibition [1] [%],inhibition (Epsin-1 (Homo sapiens)) [%],IC50 (Cytohesin-3) [µM]
CC1(C(=O)O)CC([PH](=O)O)=NN1 (stereo unspecified),63,8,
O=C(O)c1cc(P(=O)(O)O)n[nH]1,77,61,38
